Values after ≈ are worked out from the molar mass of the structure shown.
Columns and labels:
[1] = Dose normalized Cmax in Sprague-Dawley rat at 30 mg/kg, po measured upto 24 hrs by LC-MS/MS analysis; type: ADME, organism-based; details: in vivo
[2] = Dose normalized AUC in OF1 mouse plasma at 3 mg/kg, iv measured upto 24 hrs by LC-MS/MS analysis; type: ADME, organism-based; details: in vivo
[3] = Effect on blood glucose level in athymic nude mouse xenografted with rat Rat1 cells expressing myr-p110alpha at 3 to 20 mg/kg, po qd measured upto 14 hrs by glucometer analysis; type: toxicity, organism-based; details: in vivo, dose 3-20 mg/kg
[4] = tested on: Rat1; experiment: Antitumor activity at rat Rat1 cells expressing myr-p110alpha xenografted in athymic nude mouse assessed as T/C ratio at 20 mg/kg, po qd measured after 14 to 22 days; type: functional; details: time 14-22 day
[5] = Dose normalized Cmax in Sprague-Dawley rat at 3 mg/kg, po measured upto 24 hrs by LC-MS/MS analysis; type: ADME, organism-based; details: in vivo
[6] = Toxicity in athymic nude mouse xenografted with human HBRX2524 cells assessed as change in body weight at 40 mg/kg, po qd measured upto 16 days; type: organism-based; details: in vivo, 384 h, time < 16 day
[7] = Cmax in OF1 mouse at 10 mg/kg,po or 3 mg/kg,iv measured upto 24 hrs by LC-MS/MS analysis; type: ADME, organism-based; parameters: time < 24 hrs, dose 10 mg/kg, route po; details: in vivo
[8] = Toxicity in athymic nude mouse xenografted with rat Rat1 cells expressing myr-p110alpha assessed as body weight change at 20 mg/kg,po qd measured after 14 to 22 days; type: organism-based; details: in vivo, time 14-22 day
[9] = AUC(0 to Tlast) in athymic nude mouse xenografted with rat Rat1 cells expressing myr-p110alpha at 40 mg/kg, po measured after 8 days by LC-MS/MS analysis; type: ADME, organism-based; parameters: time 8 day, dose 40 mg/kg, route po; details: in vivo
[10] = Inhibition of wild type PI3K in human HCC1187 cells assessed as reduction in phosphorylation of AKT at Ser473 residue by Western blot analysis; type: cell-based
[11] = Half life in Beagle dog at 6 mg/kg, po measured upto 24 hrs using crystalline form of sample by LC-MS/MS analysis; type: ADME, organism-based, Canis lupus familiaris; details: in vivo
[12] = Solubility of compound in FaSSIF at pH 5.8 measured upto 120 mins by HPLC analysis; type: physicochemical
[13] = Effect on plasma insulin level in athymic nude mouse xenografted with rat Rat1 cells expressing myr-p110alpha at 3 mg/kg, po qd measured upto 14 hrs by glucometer analysis; type: toxicity, organism-based; details: in vivo
[14] = Half life in Beagle dog at 5.4 mg/kg, po measured upto 24 hrs using PVP-ASD form of sample by LC-MS/MS analysis; type: ADME, organism-based, Canis lupus familiaris; details: in vivo
[15] = Tlast in athymic nude mouse xenografted with rat Rat1 cells expressing myr-p110alpha at 3 mg/kg, po measured after 8 days by LC-MS/MS analysis; type: ADME, organism-based; details: in vivo, 192 h, time 8 day
[16] = Cmax in athymic nude mouse xenografted with rat Rat1 cells expressing myr-p110alpha at 40 mg/kg, po measured after 8 days by LC-MS/MS analysis; type: ADME, organism-based; parameters: dose 40 mg/kg, time 8 day, route po; details: in vivo
[17] = Inhibition of wild type PI3K in human CAL-85-1 cells assessed as reduction in phosphorylation of AKT at Ser473 residue by Western blot analysis; type: cell-based
[18] = Tmax in beagle dog at 0.3 mg/kg, po measured upto 24 hrs by LC-MS/MS analysis; type: ADME, organism-based, Canis lupus familiaris; details: in vivo
[19] = Tlast in athymic nude mouse xenografted with rat Rat1 cells expressing myr-p110alpha at 20 mg/kg, po measured after 8 days by LC-MS/MS analysis; type: ADME, organism-based; details: in vivo, 192 h, time 8 day
[20] = Solubility of compound in simulated gastric fluid at pH 2 measured upto 30 mins by HPLC analysis; type: physicochemical
[21] = Dose normalized AUC in OF1 mouse plasma at 10 mg/kg, po measured upto 24 hrs by LC-MS/MS analysis; type: ADME, organism-based; details: in vivo
[22] = Inhibition of PI3K PTEN mutant in human BT-549 cells assessed as reduction in phosphorylation of AKT at Ser473 residue by Western blot analysis; type: cell-based
[23] = Drug concentration in OF1 mouse blood at 1 mg/kg, iv measured at 5 mins post dose by LC-MS/MS analysis; type: ADME, organism-based; details: whole blood, read-out: Ct
[24] = biological target: Serine/threonine-protein kinase mTOR (Homo sapiens, UniProt P42345); experiment: Displacement of Alexa Fluor labelled Tracer-314 from human N-terminal GST-tagged mTOR incubated for 1 hr by TR-FRET assay
[25] = Dose normalized AUC(0 to Tlast) in athymic nude mouse xenografted with rat Rat1 cells expressing myr-p110alpha at 3 mg/kg, po measured after 8 days by LC-MS/MS analysis; type: ADME, organism-based; details: in vivo, 192 h, time 8 day
[26] = Antitumor activity at patient derived human HBRX2524 xenografted in athymic nude mouse assessed as T/C ratio at 40 mg/kg, po qd measured upto 16 days; type: functional; details: time <= 16 day
[27] = Tmax in Beagle dog at 6 mg/kg, po measured upto 24 hrs using crystalline form of sample by LC-MS/MS analysis; type: ADME, organism-based, Canis lupus familiaris; details: in vivo

Cmax/dose [1]: 41 nM
AUC/dose [2]: 3580 nM·h
Cmax/dose [5]: 213 nM
Cmax [7]: 422 nM
AUC(0-t) at 192 h [9]: 54 µM·h
IC50 [10]: 94 nM
half-life [11]: 12.9 h
solubility at 2 h [12]: 51 µM (≈ 23.2 µg/mL)
half-life [14]: 9.9 h
Tlast [15]: 14 h
Cmax [16]: 8950 nM
IC50 [17]: 30 nM
Tmax [18]: 1 h
Tlast [19]: 14 h
solubility at 0.5 h [20]: 64 µM (≈ 29.1 µg/mL)
AUC/dose [21]: 1738 nM·h
IC50 [22]: 99 nM
concentration at 5 min [23]: 3040 nM
IC50 [24]: 2470 nM
AUC/dose [25]: 1.82 µM·h
Tmax [27]: 4 h
Structure (SMILES): C[C@H]1OC(=O)N(c2nc(-c3cnc(N)nc3C(F)(F)F)cc(N3CCOCC3)n2)[C@H]1CO
Activity [3]: Non-Toxic
T/C [4]: 0.04
Activity [6]: Non-Toxic
Activity [8]: Non-Toxic
Activity [13]: Non-Toxic
T/C [26]: -0.2
